Assay results as given in patent publication US20240238310A1, “MODULATION OF SEX STEROID HORMONE PRODUCTION AND ACTIVITY FOR TREATING AND PREVENTING HERNIAS” (Northwestern University, priority 2020, published 2024).

Legend:
[1] = tested on: Arom^hum mice; assay: Prevention of inguinal hernia, LAMT fibrosis and atrophy in Arom^hum mice (treatment started before hernia formation); format: in vivo, mouse; settings: Arom^hum mice
Text: Increased LAMT estrogen levels are associated with LAMT fibrosis, myocyte atrophy, and inguinal hernia development; aromatase inhibitor prevents hernia formation in Arom^hum mice. […] None of the WT littermates (n=32) developed hernia.
In the mouse, the scrotum is connected to the peritoneal cavity with a narrow funicular (or inguinal) canal, whose walls are composed of LAMT. Structurally normal LAMT is essential to maintain the tone of this canal and prevents herniation of bowel. LAMT is the critical site affected by E2 excess (FIGS. 2, 5, 6). As in many other tissues, stromal cells intimately interact with parenchymal cells (myocytes) in UAMT and LAMT (FIG. 6). […] Administration of the aromatase inhibitor letrozole started at 3 weeks of age for 12 weeks prevented LAMT atrophy, fibrosis and herniation in all (10 out of 10) treated Arom^hum mice (FIG. 6B).
Experiment 1a1: Does aromatase inhibition arrest or reverse LAMT fibrosis, atrophy, and hernia in male Arom^hum mice? […] The hernias will be classified as mild, early moderate, late moderate and severe if the bulging area through muscle tissue is <100 mm^2 (˜4 weeks), 100-150 mm^2 (˜6 weeks), 150-200 mm^2 (˜8 weeks), or >200 mm^2 (˜10 weeks), respectively. First, we will treat Arom^hum mice showing mild hernias with letrozole (SC 10 μg/day release pellet) or vehicle starting at 4 weeks of age for 12 weeks^63. We will assess whether muscle fibrosis, atrophy, and hernia can be arrested or reversed in mildly (<100 mm^2) affected animals. If early letrozole treatment can arrest mild muscle fibrosis, we will delay the initiation of treatment to 6, 8, or 10 weeks of age to determine whether letrozole can arrest or reverse the growth of the early moderate (6 weeks), late moderate (8 weeks) or severe hernia (10 weeks). Hernia development will be monitored by visual inspection twice a week for 12 weeks after letrozole administration and will be reported as hernia incidence using Kaplan-Meier curve analysis. The length and width of the observed hernias will be measured to calculate the surface area (length×width). After completion of the treatment, the mice will be dissected, and LAMT, UAMT (control), and serum will be collected. One hundred mg of frozen muscle tissue will be obtained to measure tissue estrogen levels. Circulating and tissue (LAMT and UAMT) E2 levels will be measured at the IIT Research Institute by Dr. Miguel Muzzio (see letter) using LC-MS^2. We will use immunoblotting and IHC to determine ERα expression in LAMT and UAMT.
This finding was published in PNAS in Oct., 2018. […] We treated Arom^hum mice with fulvestrant for 12 weeks starting at the age of 4 weeks (before hernia formation). As expected, placebo-treated Arom^hum mice developed scrotal hernias.

[2] = tested on: LAMT primary fibroblasts from Arom^hum mice; assay: mRNA levels of estrogen-responsive and fibrotic genes in LAMT primary fibroblasts after E2 antagonist treatment; format: cell-based, mouse; settings: 100 nM ICI 182,780, pretreated 2 hours before addition of E2 (10 nM)
Protocol: FIG. 10. mRNA levels of estrogen-responsive genes [Pgr (A, E) and Greb1 (B, F)] and fibrotic genes [Spon2 (C, G), Kiss1 (D), and Eln (H)] in LAMT primary fibroblasts from Arom^hum mice after treatment with 100 nM ICI 182,780 (ICI) or […] MPP in the presence or absence of E2 (10 nM). Cells were pretreated with ICI 182,780 or MPP for 2 hours before the addition of E2. Veh, vehicle. *P<0.05, **P<0.01. GAPDH mRNA levels served as controls.
Experiment 1a2: Does the general E2 antagonist fulvestrant, which downregulates and blocks ER, or ERα-selective E2 antagonist MPP prevent, arrest or reverse LAMT muscle fibrosis, atrophy and inguinal hernias in male Arom^hum mice? […] Here, we will define whether the effects of E2 on hernia formation in LAMT is mediated via ERα in vivo. We will treat Arom^hum or WT mice with vehicle, fulvestrant (ICI 182,780), or MPP. […] Circulating and muscle tissue E2 levels will be measured using LC-MS^2. To validate the effects of each treatment, protein expression of ERα and E2/ERα target genes (Ccnd1, Pgr, and Greb1), and cell proliferation markers (Ki67 and PCNA) will be determined by IHC and immunoblotting. Fibrotic-related genes (Kiss1, Ren1, Emb, Timp1, Spon2, and Eln), the ECM marker Col1a1, and the myocyte marker Myh will be assessed using qPCR and IHC in LAMT after fulvestrant, MPP, and/or letrozole treatment. […]

SMILES: C[C@]12CC[C@@H]3c4ccc(O)cc4C[C@@H](CCCCCCCCC[S+]([O-])CCCC(F)(F)C(F)(F)F)[C@H]3[C@@H]1CC[C@@H]2O (stereo partly shown) [fulvestrant]
- development of LAMT fibrosis (fibrotic area, Masson's trichrome) ([1]; 4-week-old mice treated for 12 weeks, FIGS. 15C and D): rescues lower abdominal muscle tissue (LAMT) fibrosis and myocyte atrophy
- myofiber atrophy (myofiber cross-sectional area) ([1]; 4-week-old mice treated for 12 weeks, FIGS. 15C and E): completely prevented myofiber atrophy
- hernia formation ([1]; fulvestrant for 12 weeks starting at the age of 4 weeks (before hernia formation)): completely prevented by fulvestrant administration
- E2-induced expression of estrogen-responsive genes (Pgr and Greb1) and fibrotic genes (Spon2, Kiss1, Eln) [2]: significantly decreased E2-induced expression of estrogen-responsive genes (Pgr and Greb1) and fibrotic genes (Spon2, Kiss1 and, Eln)
